Values of other authors as cited in patent publication US8771972B2 (Saladax Biomedical Inc., priority 2011, dated 2014).

Conditions: background statement

| Structure (SMILES) | activity of metabolite |
| --- | --- |
| Clc1ccc2c(c1)N=C(N1CCNCC1)c1ccccc1N2 [N-desmethyl metabolite, N-desmethylclozapine] | limited activity |
| C[N+]1([O-])CCN(C2=Nc3cc(Cl)ccc3Nc3ccccc32)CC1 [N-Oxide derivative, Clozapine-N-oxide] | inactive |
